Data taken from the CheMixHub viscosity set.
Several values for one entry are separate records, joined by “and”; a condition that tells them apart may be missing. Identical values can stand only once. ± gives the uncertainty stated by the source. One block for each molecule: values may come before it.

- viscosity (308.15 K, 101 kPa): 0.374 ± 0.017 mPa·s
Compound: C=COCCCC

- viscosity (300 K, 101 kPa): 1.95 ± 0.03 mPa·s
- viscosity (310 K, 101 kPa): 1.61 ± 0.03 mPa·s
- viscosity (320 K, 101 kPa): 1.36 ± 0.02 mPa·s
Compound: CC(=O)OC1CCCCC1

- viscosity (298.15 K, 101 kPa): 26.7 ± 0.32 mPa·s
Compound: CC=Cc1ccc(O)c(OC)c1

- viscosity (313.15 K, 101 kPa): 3.49 ± 0.03 mPa·s
Compound: CCCCCCCCCCCCCCCCCCC

Compound: CCI
- viscosity (298.15 K, 101 kPa): 0.577 ± 0.008 mPa·s

Compound: COCC(C)O (centres undefined)
- viscosity (298.15 K, 101 kPa): 1.55 ± 0.15 mPa·s
- viscosity (298.15 K, 101.33 kPa): 1.671 ± 0.015 mPa·s and 1.723 ± 0.041 mPa·s and 1.694 ± 0.026 mPa·s
- viscosity (303.15 K, 101 kPa): 1.3 ± 0.13 mPa·s
- viscosity (308.15 K, 101 kPa): 1.22 ± 0.12 mPa·s
- viscosity (308.15 K, 101.33 kPa): 1.374 ± 0.033 mPa·s and 1.329 ± 0.021 mPa·s
- viscosity (313.15 K, 101 kPa): 1.11 ± 0.11 mPa·s
- viscosity (318.15 K, 101 kPa): 1.04 ± 0.1 mPa·s
- viscosity (318.15 K, 101.33 kPa): 1.09 ± 0.027 mPa·s and 1.078 ± 0.017 mPa·s

Compound: Cc1ccnc(C)c1
- viscosity (303 K, 101 kPa): 0.7893 ± 0.0064 mPa·s and 0.7892 ± 0.0064 mPa·s
- viscosity (313 K, 101 kPa): 0.6863 ± 0.0056 mPa·s and 0.686 ± 0.0056 mPa·s
- viscosity (323 K, 101 kPa): 0.6133 ± 0.0051 mPa·s and 0.6129 ± 0.0051 mPa·s

Compound: ClC(Cl)=C(Cl)Cl
- viscosity (293.15 K, 101.33 kPa): 0.8 ± 0.015 mPa·s
- viscosity (298 K, 101 kPa): 1.02 ± 0.12 mPa·s
- viscosity (298.15 K, 101 kPa): 0.838 ± 0.022 mPa·s and 0.8486 ± 0.0072 mPa·s and 0.8426 ± 0.0072 mPa·s
- viscosity (298.15 K, 101.33 kPa): 0.846 ± 0.008 mPa·s
- viscosity (303 K, 101 kPa): 0.97 ± 0.12 mPa·s
- viscosity (303.15 K, 101 kPa): 0.7976 ± 0.0065 mPa·s and 0.798 ± 0.007 mPa·s and 0.814 ± 0.007 mPa·s
- viscosity (303.15 K, 101.3 kPa): 0.799 ± 0.013 mPa·s
- viscosity (303.15 K, 101.32 kPa): 0.7976 ± 0.0094 mPa·s
- viscosity (308 K, 101 kPa): 0.92 ± 0.11 mPa·s
- viscosity (313 K, 101 kPa): 0.88 ± 0.11 mPa·s
- viscosity (313.15 K, 101.33 kPa): 0.731 ± 0.02 mPa·s and 0.68 ± 0.013 mPa·s
